Results reported in US10464890B2, “PGAM1 inhibitors and methods related thereto” (Emory University, priority 2011, dated 2019).

Columns and labels:
H1299 cells [1] = test: Lactate production assay; format: cell-based, human
Description: (§1) Cellular lactate production was measured under normoxia with a fluorescence-based lactate assay kit (MBL). Phenol red-free RPMI medium without FBS was added to a 6 well-plate of subconfluent cells, and was incubated for 1 h at 37° C. After incubation, 1 ml of media from each well was assessed using the lactate assay kit. Cell numbers were counted by a microscope (×40). Oxygen consumption rates were measured with a Clark type electrode equipped with 782 oxygen meter (Strathkelvin Instruments). 1×10^7 cells were resuspended in RPMI 1640 medium with 10% FBS and placed into a water-jacked chamber RC300 (Strathkelvin Instruments) and recording was started immediately. Intracellular ATP concentration was measured by an ATP bioluminescent somatic cell assay kit (Sigma). 1×10^6 cells were trypsinized and resuspended in ultrapure water. Luminescence was measured with spectrofluorometer (SPECTRA Max Gemini; […]) immediately after the addition of ATP enzyme mix to cell suspension.

H1299 cells [2] = test: Intracellular ATP assay; format: cell-based, human
Description: as §1

H1299 cells [3] = test: Oxidative PPP flux assay using 14CO2 release; format: cell-based, human
Description: Cells were seeded on 6-cm dishes that are placed in a 10-cm dish with 2 sealed pinholes on the top. ^14CO2 released from cells was collected by completely sealing the 10-cm dish, in which the cells on the 6-cm dish were incubated in 2 ml of medium containing [1-^14C]- or [6-^14C]-glucose, respectively, at a final specific activity of 10 μCi/ml glucose at 37° C. for 3 h. The oxidative PPP flux was stopped by injecting 0.3 ml of 50% TCA through one of the holes on the top, and at the same time ^14CO2 released was trapped by injecting 0.3 ml of Hyamine Hydroxide into a small cup placed on the 10-cm dish through the second hole. Krebs cycle measurements, obtained in parallel samples incubated with [6-^14C]-glucose, were used to correct the oxidative PPP flux measurements obtained from samples incubated with [1-^14C]-glucose. Each dish was completely re-sealed with parafilm and incubated overnight at room temperature. Hyamine Hydroxide in the small cup was dissolved into 60% methanol and directly subjected to scintillation counting.

H1299 cells [4] = test: 14C-lipid synthesis and 14C-RNA synthesis assays; format: cell-based, human
Description: ^14C-lipids synthesized from ^14C-glucose were measured. […] Wells were washed with an additional 500 μL of hexane:isopropanol solution, and extracts were combined and air dried with heat. Extracted lipids were resuspended in 50 μL of chloroform, and subjected to scintillation counting. Scintillation counts were normalized with cell numbers counted by a microscope (×40). ^14C-RNA synthesized from ^14C-glucose was measured. […] RNA was then extracted using RNeasy columns (Qiagen) and ^14C-RNA was assayed by scintillation counter. ^14C counts for each sample were normalized by the amount of RNA.

H1299 cells [5] = test: Cell proliferation assay, H1299; format: cell-based, human
Description: For leukemia cell proliferation assay, 10×10^4 cells were seeded in non-tissue culture coated 6-well plate and incubated at 37° C. for indicated times. Cell numbers were counted by trypan blue exclusion under a microscope (×40) at indicated times and the percentage of cell proliferation was determined by comparing PGAM1 knockdown cells to pLKO.1 vector expressing cells. […] Cell viability was determined by counting drug-treated cells compared to DMSO-treated control cells with trypan blue exclusion under a microscope (×40) and by using CellTiter96Aqueous One solution proliferation kit (Promega). For adherent cell proliferation assay such as H1299 and MDA-MB231 cells, 5×10^4 cells were seeded in 6-well plate 24 h before the assay starts and were cultured at 37° C. 24 h after seeding, cells were treated with 5 μM Methyl-2PG and incubated at 37° C. for indicated times. Cell proliferation was determined by the increase in cell number indicated times after the treatment starts compared to that at the treatment starts for each cell line (T=0). Cell numbers were counted by trypan blue exclusion under a microscope (×40). For adherent cell viability assay with trypan blue exclusion, 5×10^4 cells were seeded in 6-well plate 24 h before the assay starts and were cultured at 37° C. […] Cell viability was determined by counting drug-treated cells compared to DMSO-treated control cells with trypan blue exclusion under a microscope (×40). For MTT cell viability assay of adherent cells, 5×10^3 cells were seeded in 96-well plate 24 h before the assay starts and were cultured at 37° C. […] Cell viability was determined by using CellTiter96Aqueous One solution proliferation kit (Promega).

[6] = tested on: human primary leukemia cells; test: Primary leukemia cells from human patients; format: cell-based
Description: Approval of use of human specimens was given by the Institutional Review Board of Emory University School of Medicine. All clinical samples were obtained with informed consent with approval by the Emory University Institutional Review Board. Clinical information for the patients was obtained from the pathological files at Emory University Hospital under the guidelines and with approval from the Institutional Review Board of Emory University School of Medicine and according to the Health Insurance Portability and Accountability Act. Only samples from patients that were not previously treated with chemotherapy or radiation therapy were used. Mononuclear cells (MNCs) were isolated from peripheral blood and bone marrow samples from human leukemia patients or peripheral blood samples from healthy donors using lymphocyte separation medium (Cellgro).
Only samples from patients that were not previously treated with chemotherapy or radiation therapy were used. Mononuclear cells (MNCs) were isolated from peripheral blood and bone marrow samples from human leukemia patients or peripheral blood samples from healthy donors using lymphocyte separation medium (Cellgro).

[7] = H1299 cells treated with PGMI-004A
[8] = primary leukemia cells from a representative AML patient
[9] = samples from 7 out of 8 leukemia patients
[10] = H1299 cells with stable knockdown of PGAM1, methyl-2-PG
[11] = H1299 PGAM1 knockdown cells, methyl-2-PG

| Structure (SMILES) | lactate production (H1299 cells [1]; [7]) | intracellular ATP levels (H1299 cells [2]; [7]) | oxidative PPP flux (H1299 cells [3]; [7]) | biosynthesis of RNA (H1299 cells [4]; [7]) | biosynthesis of lipids (H1299 cells [4]; [7]) | cell proliferation (H1299 cells [5]; H1299 cells) | 2-PG levels [6, 8] | 3-PG levels [6, 8] | PGAM1 activity [6, 9] | cell viability [6, 9] | lactate production [6, 9] | lactate production (H1299 cells [1]; [10]) | intracellular ATP levels (H1299 cells [2]; [10]) | oxidative PPP flux (H1299 cells [3]; [11]) | biosynthesis of RNA and lipids (H1299 cells [4]; [11]) | cell proliferation (H1299 cells [5]; [11]) | cell viability in PGMI-004A-treated primary leukemia cells ([6]; representative AML patients, methyl-2-PG added to PGMI-004A) |
| --- | --- | --- | --- | --- | --- | --- | --- | --- | --- | --- | --- | --- | --- | --- | --- | --- | --- |
| O=C1c2ccccc2C(=O)c2c1cc(S(=O)(=O)Nc1ccc(C(F)(F)F)cc1)c(O)c2O [PGMI-004A, N-(4-trifluoromethyl)-penyl-3,4-dihydroxy-9,10-dioxo-2-anthracenesulfonamide] | significantly reduced lactate production | no significant effect on intracellular ATP levels | decreased oxidative PPP flux | reduced | reduced | reduced | decreased | increased | reduced PGAM1 activity | decreased cell viability | reduced |  |  |  |  |  |  |
| COC(=O)[C@@H](CO)OP(=O)(O)O [methyl-2-PG, methyl ester of D(+)-2-phosphoglyceric acid, reference compound] |  |  |  |  |  |  |  |  |  |  |  | rescues the reduced lactate production | no significant effect on intracellular ATP levels | rescues the decreased oxidative PPP flux | rescues | partially restores the reduced cell proliferation | rescues the decreased cell viability |
